Reference: patent publication US20100278835A1, “NOVEL COMPOUNDS 660” (ASTRAZENECA UK LIMITED, priority 2009, published 2010)

Test system: RSV RSS strain
Assay: ELISA assay of antiviral activity against RSV (reduction in RSV protein expression)
Type: cell-based
Details: Hep-2 cells infected with RSV RSS strain, multiplicity of infection 0.02, 3 days; concentration required to inhibit RSV protein expression by 50%
Protocol: The antiviral activity of these compounds against RSV was determined in an ELISA assay. […] ELISA assays were set up by seeding 96-well plates with 5×10^3 Hep-2 cells per well in 100 μl DMEM containing 10% FBS for 24 h. Compound dilutions were prepared in 0.5% DMSO and 50 μl/well was added to the assay plates, the plates were incubated at 37° C. in 5% CO2 for one hour. Cells were infected with 50 μl/well RSV RSS strain at a multiplicity of infection of 0.02 and were incubated at 37° C. in 5% CO2 for 3 days. Cells were then fixed and permeabilised with 75%/25% methanol acetone and blocked with 2% Marvel™, 0.05% Tween for one hour. Plates were then incubated in the presence of a 1:4000 dilution of […] polyclonal antibody (Millipore, AB1128) followed by a 1:1000 dilution of rabbit anti-goat, horseradish peroxidase (DAKO, PO449) labelled secondary antibody. The plates were developed with O-phenylenediamine in the presence of hydrogen peroxide. The antiviral activity of the compounds is presented as an IC50, the concentration required to inhibit RSV protein expression by 50%.

Q: For “1-[[5-(aminomethyl)-1-(4-hydroxybutyl)benzimidazol-2-yl]methyl]-3-(2-methoxyethyl)-4H-quinazolin-2-one [Example 26]”, which IC50 is on record?
A: 0.4 nM

Q: How did the IC50 turn out when “1-[[5-(aminomethyl)-1-(4-hydroxybutyl)benzimidazol-2-yl]methyl]-3-(cyclohexylmethyl)-4H-quinazolin-2-one [Example 27]” was run?
A: 94 nM

Q: Which IC50 does the source give for “1-[[5-(aminomethyl)-1-(4-hydroxybutyl)benzimidazol-2-yl]methyl]-3-cyclopropyl-4H-quinazolin-2-one [Example 25]” here?
A: 1.5 nM

Q: With “1-[[5-[(3-aminopropylamino)methyl]-1-isopentyl-benzimidazol-2-yl]methyl]-3-(2-methoxyethyl)-4H-quinazolin-2-one [Example 33]” as the compound, how does the IC50 read?
A: 243 nM

Q: Which IC50 does the source give for “1-[[5-[(3-aminopropylamino)methyl]-1-isopentyl-benzimidazol-2-yl]methyl]-3-cyclopropyl-4H-quinazolin-2-one [Example 32]” here?
A: 32 nM

Q: “1-[[5-[(3-aminopropylamino)methyl]-1-isopentyl-benzimidazol-2-yl]methyl]-3-methyl-4H-quinazolin-2-one [Example 31]” was tested. Which IC50 did it give?
A: 23 nM

Q: “2-[(3-cyclopropyl-2-oxo-4H-quinazolin-1-yl)methyl]-N′-hydroxy-1-isopentyl-benzimidazole-5-carboxamidine [Example 38]” was tested. Which IC50 did it give?
A: 88.9 nM

Q: Which IC50 does the source give for “3-cyclopropyl-1-[(1-isopentylbenzimidazol-2-yl)methyl]-4,4-dimethyl-quinazolin-2-one [Example 4]” here?
A: 1420 nM

Q: With `CC(C)CCN1Cc2ccccc2N(Cc2nc3cc(CN)ccc3n2CCC(C)C)C1=O` [Example 14, 1-[[5-(aminomethyl)-1-isopentyl-benzimidazol-2-yl]methyl]-3-isopentyl-4H-quinazolin-2-one] as the compound, how does the IC50 read?
A: 2.1 nM

Same assay, conditions: human respiratory syncytial virus, 72 h; Hep-2 cells infected with RSV RSS strain, multiplicity of infection 0.02, 3 days; concentration required to inhibit RSV protein expression by 50%

Q: `CC(C)CCn1c(CN2C(=O)N(C3CC3)Cc3ccccc32)nc2ccccc21` [Example 1] was tested. Which IC50 did it give?
A: 1890 nM

Q: Which IC50 does the source give for `CC(C)CCN1Cc2ccccc2N(Cc2nc3ccccc3n2CCC(C)C)C1=O` [Example 2, 3-isopentyl-1-[(1-isopentylbenzimidazol-2-yl)methyl]-4H-quinazolin-2-one] here?
A: > 1000 nM

Q: How did the IC50 turn out when `CC(C)CCn1c(CN2C(=O)N(C3CC3)C(C)c3ccccc32)nc2ccccc21` (stereo not drawn) [Example 3, 3-cyclopropyl-1-[(1-isopentylbenzimidazol-2-yl)methyl]-4-methyl-4H-quinazolin-2-one] was run?
A: 1300 nM

Q: For `CCCN1Cc2ccccc2N(Cc2nc3cc(CN)ccc3n2CCC(C)C)C1=O` [Example 6, 1-[[5-(aminomethyl)-1-isopentyl-benzimidazol-2-yl]methyl]-3-propyl-4H-quinazolin-2-one], which IC50 is on record?
A: 1.2 nM

Q: For `CC(C)CCn1c(CN2C(=O)N(C(C)(C)C)Cc3ccccc32)nc2cc(CN)ccc21` [Example 8, 1-[[5-(aminomethyl)-1-isopentyl-benzimidazol-2-yl]methyl]-3-tert-butyl-4H-quinazolin-2-one], which IC50 is on record?
A: 16.7 nM

Q: How did the IC50 turn out when `CC(C)CCn1c(CN2C(=O)N(C3CCCC3)Cc3ccccc32)nc2cc(CN)ccc21` [Example 9, 1-[[5-(aminomethyl)-1-isopentyl-benzimidazol-2-yl]methyl]-3-cyclopentyl-4H-quinazolin-2-one] was run?
A: 1.3 nM

Q: `CC(C)CCn1c(CN2C(=O)N(Cc3ccccc3)Cc3ccccc32)nc2cc(CN)ccc21` [Example 10, 1-[[5-(aminomethyl)-1-isopentyl-benzimidazol-2-yl]methyl]-3-benzyl-4H-quinazolin-2-one] was tested. Which IC50 did it give?
A: 15.7 nM

Q: With `CC(C)CCn1c(CN2C(=O)N(CCc3ccccc3)Cc3ccccc32)nc2cc(CN)ccc21` [Example 11, 1-[[5-(aminomethyl)-1-isopentyl-benzimidazol-2-yl]methyl]-3-phenethyl-4H-quinazolin-2-one] as the compound, how does the IC50 read?
A: 18.8 nM

Q: How did the IC50 turn out when `CC(C)CCn1c(CN2C(=O)N(C3CC3)Cc3cccnc32)nc2cc(CN)ccc21` [Example 12, 1-[[5-(aminomethyl)-1-isopentyl-benzimidazol-2-yl]methyl]-3-cyclopropyl-4H-pyrido[2,3-d]pyrimidin-2-one] was run?
A: 53.1 nM
